Measured values: PubChem BioAssay (NCI)
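48-hour exposure; five concentrations; linearly interpolated endpoints. GI50 is the concentration that inhibits growth by half. TGI denotes the concentration required for complete inhibition of growth.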

Experiments:
Assay in all cases: DTP human tumour cell line panel, 48 h
BT-549 breast = test system: BT-549 breast
COLO 205 colon = test system: COLO 205 colon
K-562 leukemia = test system: K-562 leukemia
NCI-H23 lung = test system: NCI-H23 lung
HCT-116 colon = test system: HCT-116 colon
T-47D breast = test system: T-47D breast
CAKI-1 renal = test system: CAKI-1 renal
SN12C renal = test system: SN12C renal
786-0 renal = test system: 786-0 renal
IGROV1 ovarian = test system: IGROV1 ovarian
MDA-MB-231 breast = test system: MDA-MB-231 breast
HOP-92 NSCLC = test system: HOP-92 NSCLC
A549 NSCLC = test system: A549 NSCLC
UO-31 renal = test system: UO-31 renal
SNB-75 CNS = test system: SNB-75 CNS
SF-539 CNS = test system: SF-539 CNS
HT29 colon = test system: HT29 colon
HCC-2998 colon = test system: HCC-2998 colon
UACC-257 melanoma = test system: UACC-257 melanoma
U251 CNS = test system: U251 CNS
LOX IMVI melanoma = test system: LOX IMVI melanoma
SF-295 CNS = test system: SF-295 CNS
CCRF-CEM leukemia = test system: CCRF-CEM leukemia
A498 renal = test system: A498 renal
OVCAR-4 ovarian = test system: OVCAR-4 ovarian
OVCAR-5 ovarian = test system: OVCAR-5 ovarian
SR leukemia = test system: SR leukemia
SK-MEL-2 melanoma = test system: SK-MEL-2 melanoma
NCI-H226 lung = test system: NCI-H226 lung
OVCAR-3 ovarian = test system: OVCAR-3 ovarian
HCT-15 colon = test system: HCT-15 colon
NCI/ADR-RES ovarian = test system: NCI/ADR-RES ovarian
TK-10 renal = test system: TK-10 renal
HL-60(TB) leukemia = test system: HL-60(TB) leukemia
SF-268 CNS = test system: SF-268 CNS
HOP-62 NSCLC = test system: HOP-62 NSCLC
OVCAR-8 ovarian = test system: OVCAR-8 ovarian
SW-620 colon = test system: SW-620 colon
PC-3 prostate = test system: PC-3 prostate
HS 578T breast = test system: HS 578T breast
MDA-MB-435 = test system: MDA-MB-435
SK-MEL-5 melanoma = test system: SK-MEL-5 melanoma
RPMI-8226 leukemia = test system: RPMI-8226 leukemia
SK-MEL-28 melanoma = test system: SK-MEL-28 melanoma
MALME-3M melanoma = test system: MALME-3M melanoma
EKVX NSCLC = test system: EKVX NSCLC
RXF 393 renal = test system: RXF 393 renal
MCF7 breast = test system: MCF7 breast
SNB-19 CNS = test system: SNB-19 CNS
UACC-62 melanoma = test system: UACC-62 melanoma
ACHN renal = test system: ACHN renal
NCI-H522 lung = test system: NCI-H522 lung
KM12 colon = test system: KM12 colon
NCI-H460 lung = test system: NCI-H460 lung
M14 melanoma = test system: M14 melanoma
DU-145 prostate = test system: DU-145 prostate

O=C(OCC1=CC(=O)c2ccccc2C1=O)c1ccccc1
GI50 (BT-549 breast): 13.8 µM | TGI (BT-549 breast): 27 µM | GI50 (COLO 205 colon): 2740 nM | TGI (COLO 205 colon): 10.7 µM | GI50 (K-562 leukemia): 9.47 µM | TGI (K-562 leukemia): 34.5 µM | GI50 (NCI-H23 lung): 6.28 µM | TGI (NCI-H23 lung): 24.8 µM | GI50 (HCT-116 colon): 15.5 µM | TGI (HCT-116 colon): 29.7 µM | GI50 (T-47D breast): 14.6 µM | TGI (T-47D breast): 42.3 µM | GI50 (CAKI-1 renal): 10.4 µM | TGI (CAKI-1 renal): 22.8 µM | GI50 (SN12C renal): 15.1 µM | TGI (SN12C renal): 28.5 µM | GI50 (786-0 renal): 18.9 µM | TGI (786-0 renal): 33.8 µM | GI50 (IGROV1 ovarian): 12.5 µM | TGI (IGROV1 ovarian): 25.6 µM | GI50 (MDA-MB-231 breast): 14.3 µM | TGI (MDA-MB-231 breast): 28.5 µM | GI50 (HOP-92 NSCLC): 20.2 µM | TGI (HOP-92 NSCLC): 34.9 µM | GI50 (A549 NSCLC): 2410 nM | TGI (A549 NSCLC): 6.24 µM | GI50 (UO-31 renal): 15.6 µM | TGI (UO-31 renal): 29.1 µM | GI50 (SNB-75 CNS): 14.7 µM | TGI (SNB-75 CNS): 29.4 µM | GI50 (SF-539 CNS): 12.2 µM | TGI (SF-539 CNS): 25.3 µM | GI50 (HT29 colon): 8.13 µM | TGI (HT29 colon): 37.7 µM | GI50 (HCC-2998 colon): 6.14 µM | TGI (HCC-2998 colon): 18.8 µM | GI50 (UACC-257 melanoma): 3.13 µM | TGI (UACC-257 melanoma): 9.47 µM | GI50 (U251 CNS): 14.6 µM | TGI (U251 CNS): 28.5 µM | GI50 (LOX IMVI melanoma): 5.69 µM | TGI (LOX IMVI melanoma): 21.5 µM | GI50 (SF-295 CNS): 6.41 µM | TGI (SF-295 CNS): 20.5 µM | GI50 (CCRF-CEM leukemia): 6.73 µM | TGI (CCRF-CEM leukemia): 35.4 µM | GI50 (A498 renal): 18.6 µM | TGI (A498 renal): 36.8 µM | GI50 (OVCAR-4 ovarian): 13.2 µM | TGI (OVCAR-4 ovarian): 28.4 µM | GI50 (OVCAR-5 ovarian): 24.1 µM | TGI (OVCAR-5 ovarian): 41.1 µM | GI50 (SR leukemia): 3.51 µM | TGI (SR leukemia): 30.8 µM | GI50 (SK-MEL-2 melanoma): 12.3 µM | TGI (SK-MEL-2 melanoma): 35.9 µM | GI50 (NCI-H226 lung): 14.1 µM | TGI (NCI-H226 lung): 31.5 µM | GI50 (OVCAR-3 ovarian): 3.47 µM | TGI (OVCAR-3 ovarian): 18.7 µM | GI50 (HCT-15 colon): 10.6 µM | TGI (HCT-15 colon): 29.5 µM | GI50 (NCI/ADR-RES ovarian): 21.7 µM | TGI (NCI/ADR-RES ovarian): 60.1 µM | GI50 (TK-10 renal): 15.9 µM | TGI (TK-10 renal): 29.6 µM | GI50 (HL-60(TB) leukemia): 3.72 µM | TGI (HL-60(TB) leukemia): 14.1 µM | GI50 (SF-268 CNS): 14.1 µM | TGI (SF-268 CNS): 29.6 µM | GI50 (HOP-62 NSCLC): 14.4 µM | TGI (HOP-62 NSCLC): 29.6 µM | GI50 (OVCAR-8 ovarian): 14.4 µM | TGI (OVCAR-8 ovarian): 29.1 µM | GI50 (SW-620 colon): 4.89 µM | TGI (SW-620 colon): 17.5 µM | GI50 (PC-3 prostate): 14.1 µM | TGI (PC-3 prostate): 38 µM | GI50 (HS 578T breast): 14.3 µM | TGI (HS 578T breast): 51.7 µM | GI50 (MDA-MB-435): 1980 nM | TGI (MDA-MB-435): 3.66 µM | GI50 (SK-MEL-5 melanoma): 1310 nM | TGI (SK-MEL-5 melanoma): 2680 nM | GI50 (RPMI-8226 leukemia): 21.3 µM | TGI (RPMI-8226 leukemia): > 100 µM | GI50 (SK-MEL-28 melanoma): 13 µM | TGI (SK-MEL-28 melanoma): 28 µM | GI50 (MALME-3M melanoma): 1430 nM | TGI (MALME-3M melanoma): 3.12 µM | GI50 (EKVX NSCLC): 12.9 µM | TGI (EKVX NSCLC): 27.5 µM | GI50 (RXF 393 renal): 13.6 µM | TGI (RXF 393 renal): 26.5 µM | GI50 (MCF7 breast): 13.2 µM | TGI (MCF7 breast): 26.8 µM | GI50 (SNB-19 CNS): 10.3 µM | TGI (SNB-19 CNS): 22.4 µM | GI50 (UACC-62 melanoma): 3.27 µM | TGI (UACC-62 melanoma): 9.02 µM | GI50 (ACHN renal): 15 µM | TGI (ACHN renal): 28.4 µM | GI50 (NCI-H522 lung): 15 µM | TGI (NCI-H522 lung): 28.6 µM | GI50 (KM12 colon): 11.6 µM | TGI (KM12 colon): 24.7 µM | GI50 (NCI-H460 lung): 1990 nM | TGI (NCI-H460 lung): 6.19 µM | GI50 (M14 melanoma): 1720 nM | TGI (M14 melanoma): 3.59 µM | GI50 (DU-145 prostate): 1830 nM | TGI (DU-145 prostate): 3.6 µM
